# Test results reported in patent publication US6686345B2, “DNA-cleaving antitumor agents” (Research Development Foundation, priority 1998, dated 2004).
# “Also recorded” adds a separate entry of the source.
# Experiments:
# Supercoiled DNA = assay: DNA cleavage by heterocyclic variants (KeAZB series); assay type: biochemical
# Procedure: The gel depicted in FIG. 3 represents the results of the DNA cleavage experiment with KeAZB002. Supercoiled DNA (50 uM in 50 mM TRIS phosphate buffer, pH 8) was incubated with 0 (lanes 1, 5), 1 (lanes 2, 6), 100 (lanes 3, 7), or 1000 (lane 4) uM of KeAZB002 for 24 hours at 20° C. Samples for lanes 5-8 were loaded onto the agarose gel, whereas samples for lanes 1-4 were heated at 70° C. for 90 sec. prior to loading onto the gel. After electrophoresis at 60 V for 2 hrs, the DNA products were visualized with ethidium bromide staining and UV transillumination.
# [1] = test system: various cancer cell lines; assay: In vitro cytotoxicity of KeAZB002 on various cancer cell lines; assay type: cell-based; settings: variety of cancer cell types, FIG. 16
# [2] = test system: A549 non-small cell lung cancer cells; assay: In vivo evaluation in SCID mice implanted with A549 cells
# [3] = Stability of KeAZB002 in aqueous solution; assay type: physicochemical
compound,measurement,setting,value
"Cn1c(C#Cc2ccccc2)[n+](CC#Cc2ccccc2)c2ccccc21.F[B-](F)(F)F [KeAZB002, N-phenylpropargyl-N-methyl-2-phenylethynylbenzimidazolium tetrafluoroborate]",DNA cleavage (in words),Supercoiled DNA,"cleaves DNA at micromolar concentrations; also recorded: cleaves the DNA, producing frank single strand breaks; also recorded: strongly temperature dependent"
same,in vitro cytotoxicity (in words),[1],shows activity against several tumor cell lines in vitro; also recorded: cytotoxic to a variety of cancer cell types
same,antitumor activity in vivo (in words),[2],demonstrates antitumor activity in vivo; also recorded: modest antitumor activity
same,tumor weight,"[2]; seventeen days, versus control",decreased consistently in comparison to control
same,stability in basic aqueous solution,[3]; basic aqueous solution,undergoes a series of reactions
same,stability in water,[3]; water at neutral pH,stable indefinitely
